What was measured:
[1] = biological target: T1, human recombinant P2X7 receptors (Homo sapiens, UniProt Q99572); assay: Ethidium Accumulation Assay 2 (HEK293 cells, ATP-induced ethidium uptake); type: cell-based; conditions: HEK293 cells expressing human P2X7; sometimes mean of more than one measurement; read-out: Assay 2 (antagonist pIC50 for blocking ATP responses) (converted)
T1 construct: expressed in transfected cells
T1 sequence (Q99572 1-595): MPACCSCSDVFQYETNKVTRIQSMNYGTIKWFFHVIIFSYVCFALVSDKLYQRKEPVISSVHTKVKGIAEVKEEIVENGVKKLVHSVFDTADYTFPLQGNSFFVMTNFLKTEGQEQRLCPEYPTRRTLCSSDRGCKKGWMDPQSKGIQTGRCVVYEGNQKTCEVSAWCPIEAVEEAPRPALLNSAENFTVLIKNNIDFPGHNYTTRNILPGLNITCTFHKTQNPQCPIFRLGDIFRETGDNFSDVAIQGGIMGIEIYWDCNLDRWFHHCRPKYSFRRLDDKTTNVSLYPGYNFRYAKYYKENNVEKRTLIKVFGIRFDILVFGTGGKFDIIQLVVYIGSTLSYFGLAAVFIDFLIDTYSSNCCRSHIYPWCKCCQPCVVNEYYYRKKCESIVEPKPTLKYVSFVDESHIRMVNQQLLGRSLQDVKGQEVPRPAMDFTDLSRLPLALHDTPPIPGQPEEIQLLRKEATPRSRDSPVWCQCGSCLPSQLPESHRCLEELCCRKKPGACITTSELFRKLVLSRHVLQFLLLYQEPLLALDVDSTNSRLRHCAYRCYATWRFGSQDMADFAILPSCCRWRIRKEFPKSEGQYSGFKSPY
Method: Eithidium Accumulation Assay 2
Human Embryonic Kidney (HEK) 293 cells, stably expressing human recombinant P2X7 receptors, were grown in poly-D-lysine pretreated 96 well plates for 24 hours at 37° C.
The cells were washed with assay buffer (100 μL), before addition of 25 μL of assay buffer and then 25 ul of assay buffer containing the putative P2X7 receptor antagonist compound. The cells were then incubated at room temperature (19-21° C.) for 30 min before addition of ATP solution (50 μM). […] Antagonist pIC50 values for blocking ATP responses were determined using iterative curve fitting techniques.

[2] = biological target: T1, human recombinant P2X7 receptors; assay: Ethidium Accumulation Assay 1 (HEK293 cells, ATP-induced ethidium uptake); type: cell-based; conditions: HEK293 cells expressing human P2X7; 1 mM ATP; sometimes mean of more than one measurement; read-out: Assay 1 (antagonist pIC50 for blocking ATP responses) (converted)

IC50 [1] | IC50 [2] | Compound
< 100 nM | < 100 nM | O=C(c1cccc(C(F)(F)F)c1Cl)N1CCn2c(nnc2-c2cccnn2)C1 [Example 44, 7-{[2-chloro-3-(trifluoromethyl)phenyl]carbonyl}-3-(3-pyridazinyl)-5,6,7,8-tetrahydro[1,2,4]triazolo [4,3-a]pyrazine]
< 10 nM | < 10 nM | O=C(c1ccc(F)c(Cl)c1Cl)N1CCn2c(nnc2-c2ccc(F)cn2)C1 [Example 114, 7-[(2,3-Dichloro-4-fluorophenyl)carbonyl]-3-(5-fluoro-2-pyridinyl)-5,6,7,8-tetrahydro[1,2,4]triazolo[4,3-a]pyrazine]
< 100 nM | < 100 nM | O=C(c1ccc(F)cc1Cl)N1CCn2c(nnc2-c2cccc(Cl)c2)C1 [Example 126, 7-[(2-chloro-4-fluorophenyl)carbonyl]-3-(3-chlorophenyl)-5,6,7,8-tetrahydro[1,2,4]triazolo[4,3-a]pyrazine]
< 10 nM | < 10 nM | O=C(c1cccc(C(F)(F)F)c1Cl)N1CCn2c(nnc2-c2ccc(F)cn2)C1 [Example 45, 7-{[2-chloro-3-(trifluoromethyl)phenyl]carbonyl}-3-(5-fluoro-2-pyridinyl)-5,6,7,8-tetrahydro[1,2,4]triazolo[4,3-a]pyrazine]
< 501 nM | < 100 nM | Cc1nnc2n1CCN(C(=O)c1cccc(C(F)(F)F)c1Cl)C2 [Example 15, 7-{[2-Chloro-3-(trifluoromethyl)phenyl]carbonyl}-3-methyl-5,6,7,8-tetrahydro[1,2,4]triazolo[4,3-a]pyrazine]
< 501 nM | < 501 nM | O=C(c1cccc(C(F)(F)F)c1Cl)N1CCn2cnnc2C1 [Example 3, 7-{[2-chloro-3-(trifluoromethyl)phenyl]carbonyl}-5,6,7,8-tetrahydro[1,2,4]triazolo [4,3-a]pyrazine]
< 10 nM | < 10 nM | O=C(c1ccc(Cl)c(F)c1Cl)N1CCn2c(nnc2-c2cnccn2)C1 [Example 111, 7-[(2,4-Dichloro-3-fluorophenyl)carbonyl]-3-(2-pyrazinyl)-5,6,7,8-tetrahydro[1,2,4]triazolo[4,3-a]pyrazine]
< 100 nM | < 100 nM | CCc1nnc2n1CCN(C(=O)c1cccc(C(F)(F)F)c1Cl)C2 [Example 4, 7-{[2-chloro-3-(trifluoromethyl)phenyl]carbonyl}-3-ethyl-5,6,7,8-tetrahydro[1,2,4]triazolo [4,3-a]pyrazine]

Reference: US8501946B2 (Glaxo Group Limited, priority 2009, dated 2013)
